Data taken from patent US6193992A, “Female sexual dysfunction treatment” (Pentech Pharmaceuticals, Inc., priority 1999, dated 2001).
“Also recorded” adds a separate entry of the source.

Legend:
[1] = tested on: sexual readiness (clitoral erectogenesis and vaginal engorgement on sexual stimulation); experiment: Extrapolation of rabbit optimum dose to human females (sexual readiness dose)
[2] = tested on: systemic arterial pressure; experiment: Effect of apomorphine on systemic arterial pressure; assay type: in vivo, New Zealand White female rabbits; settings: intravenous, female rabbits, FIG. 3
Procedure: (§1) New Zealand White female rabbits (n=6, about 3.5-4 kg) were anesthetized with intravenous administration of pentobarbital. A 20 gauge angiocatheter was placed into the right carotid artery for measurement of systemic arterial pressure. A midline abdominal incision was made and the pelvic nerve branch to the vagina and clitoris was dissected. Nerve stimulation was performed with a Harvard subminiature electrode placed around the pelvic nerve branch to the vagina and clitoris and connected to a Grass SD-9 stimulator. Clitoral intracavernosal and vaginal wall blood flow were measured with a laser Doppler flow probe placed directly into the clitoral cavernosal tissue or into the vaginal wall and connected to a laser Doppler flowmeter.
(§2) Basal arterial blood pressure and clitoral and vaginal blood flow were each recorded before and then after stimulation of the pelvic nerve branch to the clitoris and vagina.

[3] = tested on: penile erection; settings: cited from earlier work
[4] = tested on: clitoral intracavernosal blood flow; experiment: Effect of apomorphine on clitoral intracavernosal blood flow (laser Doppler flow) before and after pelvic nerve stimulation; assay type: in vivo, New Zealand White female rabbits; settings: intravenous, female rabbits
Procedure: as §1, §2

[5] = tested on: vaginal and clitoral blood flow; experiment: Optimum dose for vasculogenic effect on nerve stimulated vaginal and clitoral blood flow; assay type: in vivo, New Zealand White female rabbits; settings: female rabbits
Procedure: as §1, §2

[6] = tested on: emesis; settings: subcutaneous, about a 5-milligram dose; cited from earlier work
[7] = apomorphine hydrochloride studies reported in the literature; cited from earlier work
[8] = tested on: vaginal wall blood flow; experiment: Effect of apomorphine on vaginal wall blood flow (laser Doppler flow) before and after pelvic nerve stimulation; assay type: in vivo, New Zealand White female rabbits; settings: female rabbits
Procedure: as §1, §2

For CN1CCc2cccc3c2[C@H]1Cc1ccc(O)c(O)c1-3 [apomorphine, Apomorphine], the “optimum dosage for human females” value ([1]; correlated from rabbit intravenous dosage (about 1/10)) was roughly 10 µg/kg, the “effective dose in a human female” value ([1]; correlated from rabbit intravenous dose (about 1/10)) was “about 0.01 mg/kg” and the “significant sexual readiness dose” value ([1]; sublingual tablet, women, about 70 kilograms) was “about 76 μg/kg”. The “significant sexual readiness dosage” value ([1]; sublingual, 70 kg weight woman) was “about 76 micrograms/kg”, the diastolic arterial pressure ([2]; increasing doses 0.05-0.4 mg/kg) was “concentration dependent moderate decrease” and the systolic arterial pressure [2] was “minimal effect”. The “erectogenic effect in males” value ([3]; males, research and clinical studies) was “erectogenic effect manifested by penile erection”, the “induction of erection on oral administration” value ([3]; oral, psychogenic patient, U.S. Pat. No. 5,624,677 and Heaton et al.) was “can be used to induce an erection” and the “plasma concentration maintained for stimulation sufficient to cause an erection” value ([3]; sublingual, patient) was “no more than 5.5 ng/ml”. For the same molecule, the “nerve stimulation-induced peak clitoral intracavernosal blood flow, concentration dependence” value ([4]; 0.05 mg/kg to 0.2 mg/kg, FIG. 1) was “concentration dependent increase”, the “nerve stimulation-induced peak clitoral intracavernosal blood flow, significance vs before apomorphine administration” value ([4]; 0.1 mg/kg, 0.2 mg/kg and 0.3 mg/kg, FIG. 1) was “statistically significant increase; also recorded: significant increase in nerve stimulation-induced peak clitoral intracavernosal blood flow” and the “effect on baseline clitoral intracavernosal blood flow” value ([4]; before nerve stimulation) was “did not affect baseline clitoral intracavernosal blood flow”. For the same molecule, the “optimum intravenous dosage for vasculogenic effect on nerve stimulated vaginal and clitoral blood flow” value ([5]; body weight) was “about 100 μg/kg”, the optimal dose ([5]; intravenous) was “about 0.1 mg/kg” and the emetic effect [6] was “emetic”. The “pharmacokinetics, females versus males” value [7] was “the same for both females and males”, the “effect on nerve stimulation-induced increase in vaginal wall blood flow” value ([8]; 0.4 mg/kg) was “adverse effect” and the “nerve stimulation-induced peak vaginal wall blood flow, concentration dependence” value ([8]; intravenous, 0.05 and 0.2 mg/kg, FIG. 2) was “concentration dependent increase”. The “nerve stimulation-induced peak vaginal wall blood flow, significance vs before apomorphine administration” value ([8]; intravenous, 0.1 and 0.2 mg/kg, FIG. 2) was “statistically significant increase; also recorded: significant increase in vaginal wall blood flow” and the “effect on basal vaginal wall blood flow” value ([8]; intravenous, before nerve stimulation) was “did not affect basal vaginal wall blood flow”.
